The values that follow come from ChEMBL document CHEMBL1240407, “Prevalence, resistance mechanisms, and susceptibility of multidrug-resistant bloodstream isolates of Pseudomonas aeruginosa” (2010).

Converted amounts (≈) assume the structure as drawn.

What all share (format): functional
For assay [1], the system named is Pseudomonas aeruginosa. Briefly: Antimicrobial activity against MexB overexpressing Pseudomonas aeruginosa isolate PA6218 harboring gyrA D87N mutant gene by Etest method.
In assay [2] the test system is Pseudomonas aeruginosa. Briefly: Antimicrobial activity against MexB overexpressing Pseudomonas aeruginosa isolate PA1327 harboring gyrA T83I and parC S87L mutant gene by Etest method.
The test system of assay [3] is Pseudomonas aeruginosa. Briefly: Antimicrobial activity against MexB overexpressing Pseudomonas aeruginosa isolate PA9087 harboring gyrA T83I mutant gene by Etest method.
Assay [4] concerns Pseudomonas aeruginosa. Briefly: Antimicrobial activity against MexB overexpressing Pseudomonas aeruginosa isolate PA8108 harboring gyrA T83I mutant gene by Etest method.
The test system of assay [5] is Pseudomonas aeruginosa. Briefly: Antimicrobial activity against Pseudomonas aeruginosa isolate PA5441 harboring gyrA T83I and parC S87L mutant gene by Etest method.
The subject of assay [6] is Pseudomonas aeruginosa. Briefly: Antimicrobial activity against MexB overexpressing Pseudomonas aeruginosa isolate PA1328 harboring gyrA T83I and parC S87L mutant gene by Etest method.
Assay [7] concerns Pseudomonas aeruginosa. Briefly: Antimicrobial activity against MexB overexpressing Pseudomonas aeruginosa isolate PA707 harboring gyrA T83I and parC S87L mutant gene by Etest method.
Assay [8] concerns Pseudomonas aeruginosa. Briefly: Antimicrobial activity against Pseudomonas aeruginosa isolate PA5513 harboring gyrA T83I and parC S87L mutant gene by Etest method.
The test system of assay [9] is Pseudomonas aeruginosa. Briefly: Antimicrobial activity against MexB overexpressing Pseudomonas aeruginosa isolate PA1165 harboring gyrA T83I and parC S87L mutant gene by Etest method.
Assay [10] has as its system Pseudomonas aeruginosa. Put plainly: Antimicrobial activity against Pseudomonas aeruginosa isolate PA1166 harboring gyrA T83I and parC S87L mutant gene by Etest method.
The test system of assay [11] is Pseudomonas aeruginosa. Briefly: Antimicrobial activity against Pseudomonas aeruginosa isolate PA641 parC P105T mutant gene by Etest method.
The subject of assay [12] is Pseudomonas aeruginosa. Briefly: Antimicrobial activity against Pseudomonas aeruginosa isolate PA8119 harboring gyrA T83I and parC S87L mutant gene by Etest method.
Assay [13] deals with Pseudomonas aeruginosa. Briefly: Antimicrobial activity against MexB overexpressing Pseudomonas aeruginosa isolate PA1378 harboring gyrA T83I mutant gene by Etest method.
In assay [14] the test system is Pseudomonas aeruginosa. Put plainly: Antimicrobial activity against Pseudomonas aeruginosa isolate PA27853 by Etest method.
Assay [15] has as its system Pseudomonas aeruginosa. Briefly: Antimicrobial activity against Pseudomonas aeruginosa isolate PA9019 harboring gyrA D87G and parC S87L mutant gene by Etest method.
Assay [16] deals with Pseudomonas aeruginosa. Briefly: Antimicrobial activity against Pseudomonas aeruginosa isolate PA8721 harboring gyrA T83I and parC S87L mutant gene by Etest method.
Assay [17] deals with Pseudomonas aeruginosa. Put plainly: Antimicrobial activity against Pseudomonas aeruginosa isolate PA5600 harboring gyrA T83I and parC S87L mutant gene by Etest method.
The subject of assay [18] is Pseudomonas aeruginosa. Put plainly: Antimicrobial activity against Pseudomonas aeruginosa isolate PA8858 harboring gyrA T83I and parC S87L mutant gene by Etest method.
The test system of assay [19] is Pseudomonas aeruginosa. Briefly: Antimicrobial activity against Pseudomonas aeruginosa isolate PA7461 harboring gyrA T83I and parC S87L mutant gene by Etest method.

POLYMYXIN B: the MIC50 – broadly, the lowest concentration that inhibits either 50% of growth or 50% of the strains tested, depending on the study – in [1] is 1.5 µg/mL; in assay [2], 1 µg/mL; in assay [3], 0.5 µg/mL; in [4], 0.25 µg/mL; in [5] it was 1.5 µg/mL; in assay [6], 1.5 µg/mL. For the same compound, the MIC50 in assay [7] was 0.75 µg/mL; in [8], 1 µg/mL; in [9], 1.5 µg/mL; in assay [10], 0.75 µg/mL; in assay [11], 1 µg/mL; in assay [12], 1.5 µg/mL. The MIC50 in assay [13] was found to be 1.5 µg/mL; in assay [14], 1.5 µg/mL; in assay [15] it was 1 µg/mL; in assay [16] it was 1.5 µg/mL; in assay [17], 1.5 µg/mL.

On to COLISTIN, for which the MIC50 in [1] turned out to be 3 µg/mL; in [2], 2 µg/mL; in assay [3] it was 0.38 µg/mL; in assay [4], 0.25 µg/mL; in [5], 1.5 µg/mL; in assay [6], 1.5 µg/mL. Besides, the MIC50 in assay [7] worked out at 1 µg/mL; in [8], 1 µg/mL; in [9], 1.5 µg/mL; in [10], 1 µg/mL; in assay [11] it was 1.5 µg/mL; in assay [12], 1.5 µg/mL. For the same compound, the MIC50 in [13] was 2 µg/mL; in [18], 1.5 µg/mL; in [14], 1.5 µg/mL; in assay [15], 1.5 µg/mL; in [16] it was 1.5 µg/mL; in assay [19], 2 µg/mL. Besides, the MIC50 in assay [17] was 1 µg/mL.

On to `C[C@@H](O)[C@H]1C(=O)N2C(C(=O)O)=C(S[C@@H]3CN[C@H](CNS(N)(=O)=O)C3)[C@H](C)[C@H]12` [DORIPENEM], for which the MIC90 in [1], in assay [4], in [7], in assay [8], in assay [11] and in assay [13] was over 32 µg/mL each time. In addition, the MIC90 (usually the lowest concentration that inhibits either 90% of growth or 90% of the strains tested, depending on the study) in [15] was over 32 µg/mL; in assay [16] it was 32 µg/mL (≈ 76.1 µM). The MIC50 is 8 µg/mL (≈ 19 µM) in [2]; 6 µg/mL (≈ 14.3 µM) in assay [3]; 4 µg/mL (≈ 9.51 µM) in assay [5]; 3 µg/mL (≈ 7.13 µM) in [6]; 12 µg/mL (≈ 28.5 µM) in assay [9]; 24 µg/mL (≈ 57.1 µM) in assay [10]. Also, the MIC50 amounted to 16 µg/mL (≈ 38 µM) in [12]; 8 µg/mL (≈ 19 µM) in [18]; 0.19 µg/mL (≈ 0.452 µM) in assay [14]; 12 µg/mL (≈ 28.5 µM) in [19]; 4 µg/mL (≈ 9.51 µM) in [17].
